Test results reported in patent US8039493B2, “Biaryl sulfonamide derivatives” (Hoffmann-La Roche Inc., priority 2008, dated 2011).

Columns and labels:
human LXR beta = target: T1, human LXR beta (Homo sapiens, UniProt P55055); test: Radioligand binding assay (scintillation proximity), LXR beta-LBD; details: LXR beta-LBD on SPA beads, read-out: LXRbeta Binding IC50
T1 construct: human LXR beta (aa 155 to 460); made in house; host or cells: E. coli BL21 (pLysS)
T1 sequence (P55055 155-460): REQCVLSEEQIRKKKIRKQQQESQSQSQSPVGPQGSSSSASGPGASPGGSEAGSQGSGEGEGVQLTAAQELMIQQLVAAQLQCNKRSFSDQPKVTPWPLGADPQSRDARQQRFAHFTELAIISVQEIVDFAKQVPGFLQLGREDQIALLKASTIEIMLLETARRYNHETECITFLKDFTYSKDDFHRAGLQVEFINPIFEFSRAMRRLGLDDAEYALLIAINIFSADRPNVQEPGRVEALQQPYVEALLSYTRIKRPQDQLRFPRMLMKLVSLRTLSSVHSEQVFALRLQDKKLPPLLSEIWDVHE
Experimental: (§1) The following tests were carried out in order to determine the activity of the compounds of the present invention. […] Mammalian expression vectors were constructed to express full-length human LXR alpha and LXR beta. […] To accomplish this, the portions of the sequences encoding the LBDs were amplified from the full-length clones by PCR and then subcloned into the plasmid vectors.
(§2) Induction, expression, and purification of LBD proteins were performed in E. coli strain BL21 (pLysS) cells by standard methods (Ref: Current Protocols in Molecular Biology, Wiley Press, edited by Ausubel et al).
(§3) Radioligand Binding Assay
(§4) LXR alpha and LXR beta receptor binding were assayed in buffer consisting of 50 mM HEPES, pH 7.4, 10 mM NaCl, 5 mM MgCl2. For each 96-well reaction, 500 ng of LXRα-LBD or 700 ng of LXR beta-LBD proteins were bound to 80 μg or 40 μg SPA beads respectively, in a final volume of 50 μl by shaking. The resulting slurry was incubated for 1 h at RT and centrifuged for 2 min at 1300×g. The supernatant containing unbound protein was removed, and the semi-dry pellet containing the receptor-coated beads was re-suspended in 50 μl of buffer. Radioligand (eg. 100,000 dpm of (N-(2,2,2-trifluoroethyl)-N-[4-(2,2,2-trifluoro-1-hydroxy-1-trifluoromethylethyl)-phenyl]-benzenesulfonamide)) was added, and the reaction incubated at RT for 1 h in the presence of test compounds, and then scintillation proximity counting was performed. All binding assays were performed in 96-well plates and the amount of bound ligand was measured on a Packard TopCount using OptiPlates (Packard). Dose response curves were measured within a range of concentration from 10^−10 M to 10^−4 M.

human LXR alpha = target: T2, human LXR alpha (Homo sapiens, UniProt Q13133); test: Radioligand binding assay (scintillation proximity), LXRα-LBD; details: LXRα-LBD on SPA beads, read-out: LXRalpha Binding IC50
T2 construct: human LXR alpha (aa 164 to 447); made in house; host or cells: E. coli BL21 (pLysS)
T2 sequence (Q13133 164-447): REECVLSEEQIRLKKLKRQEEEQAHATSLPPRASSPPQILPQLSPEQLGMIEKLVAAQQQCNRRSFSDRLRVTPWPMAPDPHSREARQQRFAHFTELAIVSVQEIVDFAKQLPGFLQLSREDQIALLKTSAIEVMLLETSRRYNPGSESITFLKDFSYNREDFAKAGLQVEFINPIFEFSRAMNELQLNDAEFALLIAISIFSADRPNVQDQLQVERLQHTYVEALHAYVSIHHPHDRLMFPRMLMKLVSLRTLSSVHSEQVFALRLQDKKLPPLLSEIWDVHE
Experimental: as §1, §2, §3, §4

Question: What does the source list for CS(=O)(=O)c1cccc(-c2ccc(CN(Cc3ccccc3)S(=O)(=O)c3ccccc3C(F)(F)F)s2)c1 [Example 1, N-Benzyl-N-[5-(3-methanesulfonyl-phenyl)-thiophen-2-ylmethyl]-2-trifluoromethyl-benzenesulfonamide]?
Answer: IC50 (human LXR beta): 165 nM; IC50 (human LXR alpha): 205 nM

Question: For CS(=O)(=O)Nc1cccc(-c2ccc(CN(Cc3ccccc3)S(=O)(=O)c3ccccc3C(F)(F)F)s2)c1 [Example 2, N-Benzyl-N-[5-(3-methanesulfonylamino-phenyl)-thiophen-2-ylmethyl]-2-trifluoromethyl-benzenesulfonamide], which IC50 (human LXR beta) is on record?
Answer: 126 nM

Question: What about the IC50 (human LXR alpha) of the same compound?
Answer: 170 nM

Question: Which results are given for CS(=O)(=O)c1cccc(-c2nnc(CN(Cc3ccccc3)S(=O)(=O)c3ccccc3C(F)(F)F)o2)c1 [Example 3, N-Benzyl-N-[5-(3-methanesulfonyl-phenyl)-[1,3,4]oxadiazol-2-ylmethyl]-2-trifluoromethyl-benzenesulfonamide]?
Answer: IC50 (human LXR beta): 5410 nM; IC50 (human LXR alpha): 5720 nM

Question: CS(=O)(=O)c1cccc(-c2ccc(CN(Cc3ccccc3)S(=O)(=O)c3ccccc3Cl)s2)c1 [Example 4, N-Benzyl-2-chloro-N-[5-(3-methanesulfonyl-phenyl)-thiophen-2-ylmethyl]-benzenesulfonamide] was tested. Which IC50 (human LXR beta) did it give?
Answer: 123 nM

Question: And the IC50 (human LXR alpha)?
Answer: 685 nM

Question: How did the IC50 (human LXR beta) turn out when CC(C)CN(Cc1ccc(-c2cccc(S(C)(=O)=O)c2)s1)S(=O)(=O)c1ccccc1Cl [Example 5, 2-Chloro-N-isobutyl-N-[5-(3-methanesulfonyl-phenyl)-thiophen-2-ylmethyl]-benzenesulfonamide] was run?
Answer: 102 nM

Question: What about the IC50 (human LXR alpha) of the same compound?
Answer: 1170 nM

Question: What does the source list for CS(=O)(=O)c1cccc(-c2ccc(CN(C(=O)c3ccccc3)S(=O)(=O)c3ccccc3Cl)s2)c1 [Example 6, N-Benzoyl-2-chloro-N-[5-(3-methanesulfonyl-phenyl)-thiophen-2-ylmethyl]-benzenesulfonamide]?
Answer: IC50 (human LXR beta): 46 nM; IC50 (human LXR alpha): 1570 nM

Question: With CS(=O)(=O)c1cccc(-c2ccc(CN(Cc3ccccc3)S(=O)(=O)c3cccc(Cl)c3)s2)c1 [Example 7, N-Benzyl-3-chloro-N-[5-(3-methanesulfonyl-phenyl)-thiophen-2-ylmethyl]-benzenesulfonamide] as the compound, how does the IC50 (human LXR beta) read?
Answer: 1510 nM

Question: What about the IC50 (human LXR alpha) of the same compound?
Answer: 4280 nM

Question: Which results are given for CC(C)CN(Cc1ccc(-c2cccc(S(C)(=O)=O)c2)s1)S(=O)(=O)c1cccc(Cl)c1 [Example 8, 3-Chloro-N-isobutyl-N-[5-(3-methanesulfonyl-phenyl)-thiophen-2-ylmethyl]-benzenesulfonamide]?
Answer: IC50 (human LXR beta): 560 nM; IC50 (human LXR alpha): 925 nM

Question: CS(=O)(=O)c1cccc(-c2ccc(CN(C(=O)c3ccccc3)S(=O)(=O)c3cccc(Cl)c3)s2)c1 [Example 9, N-Benzoyl-3-chloro-N-[5-(3-methanesulfonyl-phenyl)-thiophen-2-ylmethyl]-benzenesulfonamide] was tested. Which IC50 (human LXR beta) did it give?
Answer: 980 nM

Question: What about the IC50 (human LXR alpha) of the same compound?
Answer: 2140 nM

Question: CS(=O)(=O)c1cccc(-c2ncc(CN(Cc3ccccc3)S(=O)(=O)c3ccccc3Cl)s2)c1 [Example 10, N-Benzyl-2-chloro-N-[2-(3-methanesulfonyl-phenyl)-thiazol-5-ylmethyl]-benzenesulfonamide] was tested. Which IC50 (human LXR beta) did it give?
Answer: 56.5 nM

Question: What about the IC50 (human LXR alpha) of the same compound?
Answer: 2700 nM

Question: With CC(C)CN(Cc1cnc(-c2cccc(S(C)(=O)=O)c2)s1)S(=O)(=O)c1ccccc1Cl [Example 11, 2-Chloro-N-isobutyl-N-[2-(3-methanesulfonyl-phenyl)-thiazol-5-ylmethyl]-benzenesulfonamide] as the compound, how does the IC50 (human LXR beta) read?
Answer: 170 nM

Question: And the IC50 (human LXR alpha)?
Answer: 8780 nM

Question: With CS(=O)(=O)c1cccc(-c2ncc(CN(C(=O)c3ccccc3)S(=O)(=O)c3ccccc3Cl)s2)c1 [Example 12, N-Benzoyl-2-chloro-N-[2-(3-methanesulfonyl-phenyl)-thiazol-5-ylmethyl]-benzenesulfonamide] as the compound, how does the IC50 (human LXR beta) read?
Answer: 120 nM

Question: What about the IC50 (human LXR alpha) of the same compound?
Answer: 27300 nM

Question: What does the source list for CC(C)CN(Cc1ccc(-c2cccc(S(C)(=O)=O)c2)o1)S(=O)(=O)c1ccccc1Cl [Example 13, 2-Chloro-N-isobutyl-N-[5-(3-methanesulfonyl-phenyl)-furan-2-ylmethyl]-benzenesulfonamide]?
Answer: IC50 (human LXR beta): 40.5 nM; IC50 (human LXR alpha): 3490 nM

Question: How did the IC50 (human LXR beta) turn out when CC(C)CN(Cc1cc(-c2cccc(S(C)(=O)=O)c2)cs1)S(=O)(=O)c1ccccc1Cl [Example 14, 2-Chloro-N-isobutyl-N-[4-(3-methanesulfonyl-phenyl)-thiophen-2-ylmethyl]-benzenesulfonamide] was run?
Answer: 2.2 nM

Question: And the IC50 (human LXR alpha)?
Answer: 68 nM

Question: What does the source list for CC(C)CN(Cc1ccc(-c2cccc(S(C)(=O)=O)c2)s1)S(C)(=O)=O [Example 15, N-Isobutyl-N-[5-(3-methanesulfonyl-phenyl)-thiophen-2-ylmethyl]-methanesulfonamide]?
Answer: IC50 (human LXR beta): 7060 nM; IC50 (human LXR alpha): 48700 nM

Question: With CCS(=O)(=O)N(Cc1ccc(-c2cccc(S(C)(=O)=O)c2)s1)CC(C)C [Example 16, Ethanesulfonic acid isobutyl-[5-(3-methanesulfonyl-phenyl)-thiophen-2-ylmethyl]-amide] as the compound, how does the IC50 (human LXR beta) read?
Answer: 2860 nM

Question: And the IC50 (human LXR alpha)?
Answer: 25000 nM

Question: Which IC50 (human LXR beta) does the source give for CC(C)CN(Cc1ccc(-c2cccc(S(C)(=O)=O)c2)s1)S(=O)(=O)c1ccccc1F [Example 17, 2-Fluoro-N-isobutyl-N-[5-(3-methanesulfonyl-phenyl)-thiophen-2-ylmethyl]-benzenesulfonamide] here?
Answer: 28 nM

Question: And the IC50 (human LXR alpha)?
Answer: 2210 nM

Question: For CC(C)CN(Cc1ccc(-c2cccc(S(C)(=O)=O)c2)s1)S(=O)(=O)c1c(Cl)cccc1Cl [Example 18, 2,6-Dichloro-N-isobutyl-N-[5-(3-methanesulfonyl-phenyl)-thiophen-2-ylmethyl]-benzenesulfonamide], which IC50 (human LXR beta) is on record?
Answer: 82 nM

Question: And the IC50 (human LXR alpha)?
Answer: 1440 nM

Question: What does the source list for COC(=O)c1ccccc1S(=O)(=O)N(Cc1ccc(-c2cccc(S(C)(=O)=O)c2)s1)CC(C)C [Example 19, 2-{Isobutyl-[5-(3-methanesulfonyl-phenyl)-thiophen-2-ylmethyl]-sulfamoyl}-benzoic acid methyl ester]?
Answer: IC50 (human LXR beta): 59 nM; IC50 (human LXR alpha): 2630 nM

Question: With CC(C)CN(Cc1ccc(-c2cccc(S(C)(=O)=O)c2)s1)S(=O)(=O)C(F)(F)F [Example 20, Trifluoro-N-isobutyl-N-[5-(3-methanesulfonyl-phenyl)-thiophen-2-ylmethyl]-methanesulfonamide] as the compound, how does the IC50 (human LXR beta) read?
Answer: 270 nM

Question: What about the IC50 (human LXR alpha) of the same compound?
Answer: 3750 nM

Question: Which IC50 (human LXR beta) does the source give for CC(C)CN(Cc1ccc(-c2cccc(S(C)(=O)=O)c2)s1)S(=O)(=O)c1cccs1 [Example 21, Thiophene-2-sulfonic acid isobutyl-[5-(3-methanesulfonyl-phenyl)-thiophen-2-ylmethyl]-amide] here?
Answer: 140 nM

Question: What about the IC50 (human LXR alpha) of the same compound?
Answer: 605 nM

Question: CC(C)CN(Cc1ccc(-c2cccc(S(C)(=O)=O)c2)s1)S(=O)(=O)c1cccc(Cl)c1F [Example 22, 3-Chloro-2-fluoro-N-isobutyl-N-[5-(3-methanesulfonyl-phenyl)-thiophen-2-ylmethyl]-benzenesulfonamide] was tested. Which IC50 (human LXR beta) did it give?
Answer: 22.5 nM

Question: And the IC50 (human LXR alpha)?
Answer: 1380 nM

Question: With COc1ccc(Cl)cc1S(=O)(=O)N(Cc1ccc(-c2cccc(S(C)(=O)=O)c2)s1)CC(C)C [Example 23, 5-Chloro-N-isobutyl-N-[5-(3-methanesulfonyl-phenyl)-thiophen-2-ylmethyl]-2-methoxy-benzenesulfonamide] as the compound, how does the IC50 (human LXR beta) read?
Answer: 19 nM

Question: And the IC50 (human LXR alpha)?
Answer: 1520 nM

Question: What does the source list for Cc1ccc(F)cc1S(=O)(=O)N(Cc1ccc(-c2cccc(S(C)(=O)=O)c2)s1)CC(C)C [Example 24, 5-Fluoro-N-isobutyl-N-[5-(3-methanesulfonyl-phenyl)-thiophen-2-ylmethyl]-2-methyl-benzenesulfonamide]?
Answer: IC50 (human LXR beta): 28.5 nM; IC50 (human LXR alpha): 165 nM

Question: How did the IC50 (human LXR beta) turn out when CCCCS(=O)(=O)N(Cc1ccc(-c2cccc(S(C)(=O)=O)c2)s1)CC(C)C [Example 25, Butane-1-sulfonic acid isobutyl-[5-(3-methanesulfonyl-phenyl)-thiophen-2-ylmethyl]-amide] was run?
Answer: 80 nM

Question: And the IC50 (human LXR alpha)?
Answer: 2750 nM

Question: How did the IC50 (human LXR beta) turn out when CC(C)CN(Cc1ccc(-c2cccc(S(C)(=O)=O)c2)s1)S(=O)(=O)c1ccccc1C#N [Example 26, 2-Cyano-N-isobutyl-N-[5-(3-methanesulfonyl-phenyl)-thiophen-2-ylmethyl]-benzenesulfonamide] was run?
Answer: 98 nM

Question: And the IC50 (human LXR alpha)?
Answer: 15900 nM
